In one experiment the target is recombinant PfCLK3 (Plasmodium falciparum, UniProt Q8IIL5). As to the kind of experiment: TR-FRET kinase assay at Km ATP. Format: biochemical. Conditions: 2 hour incubation, errors SD, N ≥ 3, * concentration response curve not complete. Here is the method:
All compounds were then evaluated against recombinant PfCLK3 using a TR-FRET kinase assay (Fig. 5). […]
Time Resolved Förster Resonance Energy Transfer (TR-FRET) Assay
Tr-FRET technology was used to determine kinase activity and Km ATP before profiling compounds. An 11-point half-log serial dilution of each test compound was prepared in 100% DMSO at 100X final test concentration. The dilution series were dispensed onto assay plates with liquid handling machinery using positive displacement. The final DMSO concentration in the assay was 1%. To obtain IC 50 values, full length recombinant PfCLK3 was prepared in 1X assay buffer (50 mM Hepes, 10 mM MgCl2, 1 mM EGTA, 0.01% Tween20, 2 mM TCEP) at a 2X concentration and incubated with compounds for 15 minutes at room temperature before addition of ULight-labelled peptide substrate (MBP) with Km ATP (at 2X concentration). The reaction was centrifuged and incubated for 2 hr at 37 °C. To stop the reaction, 1X Lance detection buffer was added with 1 nM Eu-labelled anti-MBP and 10 mM EDTA, and the reaction was incubated in the dark for 2 hr at room temperature to allow detection to take place. Plate output was read on a Pherastar FSX and data analysed in Graphpad Prism to a 4-parameter curve fit. […]

Another experiment has as its target human (h)CLK2 (Homo sapiens, UniProt P49760). As to the kind of experiment: Selectivity kinase assay against hCLK2. Conditions: for IC50: errors SD, N ≥ 3. Format: biochemical. An excerpt:
Given this work aims to target a conserved residue, selectivity must be derived from the reversible ligand rather than the covalent interaction.

The subject of experiment [1] is 3D7 Plasmodium falciparum parasites. As to the kind of experiment: Ex vivo P. falciparum (3D7) inhibition assay. Format: cell-based. Conditions: 3D7, Pf3D7 parasites, 72 hours, errors SD. Here is the method: Compounds 4, 5, 8 and 9 were then assessed against 3D7 Plasmodium falciparum parasites (Fig. 6). […]
P. falciparum (3D7) culture and synchronisation.
P. falciparum cultures were maintained in RPMI-1640 media (Invitrogen) supplemented with 0.2% sodium bicarbonate, 0.5% Albumax II, 2.0 mM L-glutamine (Sigma) and 10 mg/L gentamycin. For continuous culture, the parasites were maintained at 4% haematocrit in human erythrocytes from 0+ blood donors and between 0.5 - 3% parasitaemia in an incubator at 37 °C, 5% carbon dioxide (CO 2), 5% oxygen (O 2) and 90% nitrogen (N 2). To obtain highly synchronous ring stage parasites for assays, cultures were double synchronised using Percoll and Sorbitol synchronisation. First, highly segmented schizonts were enriched by centrifugation on a 70% Percoll (GE Healthcare) cushion gradient. The Schizont pellet was collected and washed twice before fresh erythrocytes were added to a final haematocrit of 4%, and incubated for about 1-2 hours shaking continuously to allow merozoites egress and re-invasion of new erythrocytes. Residual schizonts were then removed by a second Percoll purification followed by treating the ring pellet with sorbitol to generate highly synchronous 1-2 hours old ring-stage parasites.
Ex vivo P. Falciparum (3D7) inhibition assay.
To determine the IC 50 of the molecules in parasites (P. falciparum 3D7) ex vivo, the molecules were diluted 1 in 3 from a starting concentration of 100 μM for 12 dilution points in triplicate. 50 μL of freshly diluted drugs, at twice the required final concentrations were aliquoted into black 96-well plates. To the compound plates, 50 μL of parasites prepared at 8% haematocrit at a parasitaemia (0.3 - 0.5%) were added and mixed by pipetting up and down several times giving a final culture volume of 100 μL at the required compound concentration (top concentration of 100 μM) and 4% haematocrit. To the ‘no compound’ control, growth media was added and uninfected erythrocytes were included on the plate as blank. The outer wells were filled with media to reduce evaporation from the experimental wells and the plates incubated for 72 hours (±2 hours) to allow the parasites sufficient time to re-invade before they are collected and frozen. For cellular washout studies, compound media was exchanged for compound-free media after 6 hours, and the parasites incubated for a […]

Experiment [2] has as its system PfCLK3 kinase domain (amino acid residues 334–699). Kind of experiment: Intact protein LC-MS for covalent adduct formation. Format: binding, Plasmodium falciparum. Conditions: for covalent adduct formation with PfCLK3 kinase domain: pH 7.4, 1:5 protein to compound ratio. As to the method: All compounds were then evaluated for covalent binding with PfCLK3 kinase domain (amino acid residues 334–699) using intact protein LC-MS (Fig. 3). Compounds were incubated at pH 7.4 in a 1 : 5 protein to compound ratio and analysed for covalent adduct formation using ESI TOF. […] Compounds 8 and 9 yielded a fully modified species at 43 957 Da, which can be attributed to the mass of the apo protein + the mass of the pyridinium product adduct. A minor mass (20–25%) of 44 378 Da was also detected, consistent with a doubly modified PfCLK3 kinase domain. This implies that cross reactivity with non-catalytic lysine residues is possible using the ethynyl benzaldehyde functionality, although a minor product. […]
dialyzing the protein into a final buffer containing 20 mM HEPES pH 7.4, 150 mM NaCl, 1 […]
PfCLK3 kinase domain (residues 334–699 with a C-terminal TEV cleavage sequence and His6-tag) was cloned into pFastBac vector and expressed and purified from Sf21 insect cells.
Cells were infected using P2 BIICs at an MOI of 0.2 and left to express for 72 h. Harvested cells were lysed and centrifuged before purifying using IMAC and SEC in a final buffer containing 20 mM HEPES pH 7.4, 150 mM NaCl, 1 mM TCEP, and 1 mM MgCl2.
Protein Mass Spectrometry
For intact protein mass spectrometry, compounds were incubated with a 5-fold excess of compound in buffer containing 20 mM HEPES pH 7.4, 150 mM NaCl, 1 mM TCEP, and 1 mM MgCl 2. 5 μL of kinase domain (1 mg/mL) was added to 25 μL of buffer before 0.12 μL of compound in a 10 mM DMSO stock was added to start the incubation. Samples were incubated at room temperature for 4 hours before 10 μL alliquots were analysed by LC-MS.
Intact protein LC-MS experiments were performed on a Synapt G2 Q-ToF instrument equipped with electrospray ionisation (Waters Corp., Manchester, UK). LC separation was achieved using an Acquity UPLC equipped with a reverse phase C4 Aeris Widepore 50 × 2.1 mm HPLC column (Phenomenex, CA, USA) and a gradient of 5–95% acetonitrile (0.1% formic acid) over 10 minutes was employed. Data analysis was performed using MassLynx v4.1 and deconvolution was performed using MaxEnt. […]

The mark [3] stands for this setting: N ≥ 3, read-out: pEC50 (3D7) (converted).
Setting [4] is: pH 7.4, 1:5 protein to compound, 4 hours room temperature, compound 4 with C-terminal His-tag construct.

The structures appear in SMILES notation. Where “and” joins values, the source holds several entries; their conditions need not be identical. Identical values can stand only once. Entries after “also recorded” stand apart in the source; their conditions may differ. Like-named read-outs stand apart in the source and are kept apart here.

human (h)CLK2, sequence (P49760 whole entry): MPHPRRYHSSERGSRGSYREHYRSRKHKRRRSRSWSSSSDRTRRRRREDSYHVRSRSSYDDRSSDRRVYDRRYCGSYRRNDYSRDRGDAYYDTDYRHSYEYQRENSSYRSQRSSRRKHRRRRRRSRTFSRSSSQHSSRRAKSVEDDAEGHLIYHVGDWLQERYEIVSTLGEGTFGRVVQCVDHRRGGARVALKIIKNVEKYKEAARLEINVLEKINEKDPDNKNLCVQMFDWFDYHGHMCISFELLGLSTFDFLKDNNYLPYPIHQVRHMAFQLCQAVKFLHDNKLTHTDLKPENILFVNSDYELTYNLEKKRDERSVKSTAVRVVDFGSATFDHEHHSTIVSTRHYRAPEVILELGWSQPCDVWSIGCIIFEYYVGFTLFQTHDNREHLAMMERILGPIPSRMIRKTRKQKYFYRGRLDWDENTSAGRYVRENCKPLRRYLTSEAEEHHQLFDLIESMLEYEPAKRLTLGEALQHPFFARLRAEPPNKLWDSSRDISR
recombinant PfCLK3, sequence (Q8IIL5 entry or part of it): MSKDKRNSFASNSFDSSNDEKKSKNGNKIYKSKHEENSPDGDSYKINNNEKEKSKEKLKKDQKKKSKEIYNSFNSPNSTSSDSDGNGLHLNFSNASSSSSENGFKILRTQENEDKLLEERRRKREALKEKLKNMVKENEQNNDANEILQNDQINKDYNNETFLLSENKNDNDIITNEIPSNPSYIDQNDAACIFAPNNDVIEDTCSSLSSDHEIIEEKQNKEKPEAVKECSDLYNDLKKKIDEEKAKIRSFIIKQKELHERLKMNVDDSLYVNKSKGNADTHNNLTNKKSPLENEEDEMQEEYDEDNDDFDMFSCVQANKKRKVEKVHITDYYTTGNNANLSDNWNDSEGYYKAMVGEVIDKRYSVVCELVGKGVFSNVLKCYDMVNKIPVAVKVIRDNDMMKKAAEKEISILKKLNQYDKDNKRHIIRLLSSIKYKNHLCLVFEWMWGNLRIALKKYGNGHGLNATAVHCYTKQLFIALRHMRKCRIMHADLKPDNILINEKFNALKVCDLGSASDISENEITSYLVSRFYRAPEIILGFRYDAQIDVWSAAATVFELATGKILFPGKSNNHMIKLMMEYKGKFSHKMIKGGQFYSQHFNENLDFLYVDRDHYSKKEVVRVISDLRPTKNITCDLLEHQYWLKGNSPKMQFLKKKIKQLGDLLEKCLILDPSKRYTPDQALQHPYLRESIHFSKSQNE

In the case of `CCN(CC)Cc1ccc(OC)c(-c2cc3c(-c4ccc(O)c(C=O)c4)ccnc3[nH]2)c1` [Compound 4], the IC50 is 16 ± 9 nM on recombinant PfCLK3 (IC50 (apparent), Km ATP (5 μM)); 16.2 nM at recombinant PfCLK3 (pIC50, Km ATP (5 μM)); 104 ± 37 nM on human (h)CLK2 (read-out: IC50 (hCLK2)). The EC50 in experiment [1] (N ≥ 3, read-out: EC50 (3D7)) was 6350 ± 2310 nM; in experiment [1] (setting [3]) it was 6310 nM. In experiment [2] (imine adduct), the “partial covalent bond formation, modification” value is given as 32–60%. Moreover, in experiment [2], the “covalent adduct formation with PfCLK3 kinase domain” value is “showed covalent adduct formation; also recorded: formed a covalent adduct with PfCLK3”. In addition, the “Relative Ratio, assignment apo” value in experiment [2] (setting [4]) amounted to 40. Besides, in experiment [2] (setting [4]), the “Relative Ratio, assignment holo (singly modified)” value stood at 60.

Consider `C#Cc1ccc(-c2c[nH]c3ncc(-c4cc(CN(CC)CC)ccc4OC)cc23)cc1C=O` [Compound 9], for which the IC50 on recombinant PfCLK3 (IC50 (apparent), Km ATP (5 μM)) is 16 ± 4 nM; on recombinant PfCLK3 (pIC50, Km ATP (5 μM)) it was 16.6 nM; at human (h)CLK2 (read-out: pIC50 (hCLK2) (converted)), 16.6 nM. Further, the “fold more potent against hCLK2 than parent S1” value at human (h)CLK2 (relative to S1) amounted to 31 fold. Also, the EC50 in experiment [1] (N ≥ 3, read-out: EC50 (3D7)) is 4350 ± 500 nM; in experiment [1] (setting [3]), 4370 nM. In experiment [2] (44 378 Da species), the “doubly modified PfCLK3 kinase domain, minor mass abundance” value was 20–25% and ~20%. Also, in experiment [2], the “covalent adduct formation with PfCLK3 kinase domain” value is on record as “showed covalent adduct formation; also recorded: formed a covalent adduct with PfCLK3”. The “Relative Ratio, assignment holo (doubly modified)” value in experiment [2] (pH 7.4, 1:5 protein to compound, 4 hours room temperature) is listed as 20. Also, in experiment [2] (setting [4]), the “Relative Ratio, assignment holo (singly modified)” value is given as 80.
